Measured values as given in patent US20180170983A1, “New Use of Cell-Permeable Peptide Inhibitors of the JNK Signal Transduction Pathway for the Treatment of Mild Cognitive Impairment” (Xigen Inflammation Ltd., priority 2015, published 2018).
Blank lines part the entries; values can stand above or below the compound they belong to. Square brackets hold non-standard residues; d marks the D form. Ends that are not written are not given here.

Tests used:
βTC-3 cell cultures = assay: Cellular import of fluorescein-labeled TAT and TAT-IB1(s) peptides; assay type: cell-based; settings: for entry of fluorescein labeled peptide into cells: labeled peptides (1 PM), BSA 1 μM, βTC-3 cells
Method: The ability of the L- and D-enantiomeric forms of TAT and TAT-IB(s) peptides (“TAT-IB peptides”) to enter cells was evaluated. L-TAT, D-TAT, L-TAT-IB1(s), and D-TAT-IB1(s) peptides [SEQ ID NOs: 5, 6, 9 and 12, respectively] were labeled by N-terminal addition of a glycine residue conjugated to fluorescein. Labeled peptides (1 PM) were added to βTC-3 cell cultures, which were maintained as described in Example 3. At predetermined times cells were washed with PBS and fixed for five minutes in ice-cold methanol-acetone (1:1) before being examined under a fluorescence microscope. Fluorescein-labeled BSA (1 μM, 12 moles/mole BSA) was used as a control.
Little to no signal was present at 48 hours.
Fluorescent signals from these all-D retro-inverso peptides were still very strong 1 week later, and the signal was only slightly diminished at 2 weeks post treatment.

JNK = settings: JBDs of IB1 and IB2 vs c-Jun or ATF2; cited from earlier work
βTC-3 cells = assay: IL-1β induced pancreatic beta-cell death, peptide addition; assay type: cell-based; settings: one single addition of peptide 1 μM, two days of incubation with IL-1β
Method: Inhibition of IL-1β induced pancreatic beta-cell death by the D-TAT-IB1(s) peptide was analyzed. βTC-3 cells were incubated as described above for 30 minutes with one single addition of the indicated peptides (1 μM), then IL-1 (10 ng/ml) was added.
Apoptotic cells were then counted after two days of incubation with IL-1β by use of Propidium Iodide and Hoechst 33342 nuclear staining. A minimum of 1,000 cells were counted for each experiment. Standard Error of the Means (SEM) are indicated, n=5.
Long term inhibition of IL-1P induced cell-death by the D-TAT-IB1 peptide was also analyzed. βTC-3 cells were incubated as above for 30 minutes with one single addition of the indicated peptides (1 μM), then […] (10 ng/ml) was added, followed by addition of the cytokine every two days. Apoptotic cells were then counted after 15 days of incubation with IL-1 by use of propidium iodide and Hoechst 33342 nuclear staining. […] A minimum of 1.000 cells were counted for each experiment.

[1] = tested on: primary embryonic cultures and differentiated PC12 cells; settings: at dosages that inhibit activation of JNKs; after trophic withdrawal and in mice treated with 1-methyl-4-phenyl tetrahydropyridine; cited from earlier work
[2] = tested on: cultured chick embryonic dorsal root ganglion, sympathetic, ciliary and motor neurons; settings: cited from earlier work
hippocampal CA1 neurons = settings: in vivo, transient global ischemia; cited from earlier work

- stability inside the cells (βTC-3 cell cultures): extremely stable inside the cells
Compound: CC(C)C[C@@H](NC(=O)[C@@H](Cc1ccccc1)NC(=O)[C@H]1CCCN1C(=O)[C@@H](CCC(N)=O)NC(=O)[C@H](NC(=O)[C@H]1CCCN1C(=O)[C@@H](CCCNC(=N)N)NC(=O)[C@@H](CO)NC(=O)[C@@H](CCC(N)=O)NC(=O)[C@H](N)CC(=O)O)C(C)C)C(=O)N[C@H](CC(N)=O)C(=O)N[C@H](CC(C)C)C(=O)N[C@@H](C(=O)N[C@@H](C(=O)N1CCC[C@@H]1C(=O)N[C@H](CCCNC(=N)N)C(=O)N[C@H](CCCCN)C(=O)N1CCC[C@@H]1C(=O)N[C@H](CCCNC(=N)N)C(=O)N1CCC[C@@H]1C(=O)N1CCC[C@@H]1C(=O)N[C@H](CCCNC(=N)N)C(=O)N[C@H](CCCNC(=N)N)C(=O)N[C@H](CCCNC(=N)N)C(=O)N[C@H](CCC(N)=O)C(=O)N[C@H](CCCNC(=N)N)C(=O)N[C@H](CCCNC(=N)N)C(=O)N[C@H](CCCCN)C(=O)N[C@H](CCCCN)C(=O)N[C@H](CCCNC(=N)N)C(=O)NCC(=O)O)[C@H](C)O)[C@H](C)O [XG-102]

Compound: IPSPSVEEPHKHRPTTLRLTTLGAQDS (Description of sequence Peptide IB2-long (see Table 1))
- efficiency in binding JNK relative to c-Jun or ATF2 (JNK): approximately 100 fold

Compound: TDQSRPVQPFLNLTTPRKPRYTDPPRRRQRRKKRG ([dT][dD][dQ][dS][dR][dP][dV][dQ][dP][dF][dL][dN][dL][dT][dT][dP][dR][dK][dP][dR][dY][dT][dD][dP][dP][dR][dR][dR][dQ][dR][dR][dK][dK][dR]G) [D-TAT-IB1]
- IL-1 induced apoptosis (βTC-3 cells): decreased IL-1 induced apoptosis to a similar extent as L-TAT-IB peptides

Compound: GRKKRRQRRRPPRPKRPTTLNLFPQVPRSQD [L-TAT-IB1(s)]
- entry of fluorescein labeled peptide into cells (βTC-3 cell cultures): efficiently and rapidly (less than five minutes) entered cells

Compound: GRKKRRQRRR (Description of sequence Peptide L-TAT (see Table 1))
- entry of fluorescein labeled peptide into cells (βTC-3 cell cultures): efficiently and rapidly (less than five minutes) entered cells

Compound: RRRQRRKKRG (D-amino acids; Description of sequence Peptide D-TAT (see Table 1); MUTAGEN (1)..(10) all amino acids are D-amino acids)
- stability inside the cells (βTC-3 cell cultures): extremely stable inside the cells

Compound: CCSCc1ccc2c(c1)c1c3c(c4c5cc(CSCC)ccc5n5c4c1n2[C@H]1C[C@](O)(C(=O)OC)[C@]5(C)O1)CNC3=O [CEP-1347]
- neuronal survival [1]: promotes neuronal survival
- long term-survival of neurons [2]: can promote long term-survival

Compound: N#CC(c1ccnc(NCCc2cccnc2)n1)c1nc2ccccc2s1 (stereo not shown) [AS601245]
- protection against the delayed loss of hippocampal CA1 neurons (hippocampal CA1 neurons): provided significant protection

Compound: PGTGCGDTYRPKRPTTLNLFPQVPRSQDT (Description of sequence peptide IB1-long (see Table 1))
- efficiency in binding JNK relative to c-Jun or ATF2 (JNK): approximately 100 fold
